What was measured:
[1] = system: HSCs (CD150+CD34−Flt3−LSK); assay: Culture of freshly isolated HSCs with metabolic inhibitors, total cell numbers by FACS after 5 days; type: cell-based, mice; conditions: for cell numbers 5 days after induction of the inhibitor treatment, HSCs from young mice / sensitivity to respond with a reduction in cell growth, HSCs from old mice: inhibitor of mitochondrial nutrient uptake 9 μM, FIG. 6D; for sensitivity to respond with a reduction in cell growth, HSCs from old mice: compared to young; for cell numbers 5 days after initiation of the treatment, HSCs from old mice compared to HSCs from young mice: 2-DG 3 mM, Oligomycin 1.8 nM, 1,500 HSCs per well, FIG. 6C
Experimental: (C-E) One-thousand-five-hundred, freshly isolated HSCs (CD150^+CD34^−Flt3^−LSK) from young or old mice were cultured per well (96-well plate). (C) HSCs were exposed to 2-DG (3 mM), Oligomycin (=Oligo, 1.8 nM), or DMSO as control (=Con). Total cell numbers per well were determined by FACS after 5 days. Young mice (4 months, n=4) and old mice (24 months, n=6). Data are normally distributed (Shapiro-Wilk test). P-values were calculated by t-test with Welch's correction. Error bars depict SD. (D) HSCs were cultured with inhibitors that block the mitochondrial uptake of […] (BPTES, 9 μM), fatty acids (Etomoxir, 9 μM), or pyruvate (UK5099, 9 μM). Total cell numbers were counted by FACS after 5 days. Young mice (3-4 months, n=5) and old mice (26 months, n=4). Data are normally distributed (Shapiro-Wilk test). P-values were calculated by unpaired t-test with Welch's correction. (E) HSCs were exposed to a combination of 3 inhibitors (3 inhibitors=3I, same as in D) at a concentration of 6 μM (each) or to DMSO (Con). Young mice (2-3 months, n=5) and old mice (30-31 months, n=5). Data are normally distributed (Shapiro-Wilk test). P-values were calculated using 2-way ANOVA with Tukey's multiple comparisons test. Error bars depict SD.
To test the functional relevance of these aging-associated changes in the proteome of HSCs, freshly isolated HSCs were exposed to treatment with oligomycin (an inhibitor of mitochondrial oxidative phosphorylation) or to treatment with 2-Deoxy-D-glucose (2-DG) in culture. […] Similar results were obtained after inhibition of nutrient influx into mitochondria. In this experiment, freshly isolated HSCs were incubated with compounds that inhibit the influx of nutrients into mitochondria (BPTES for glutamine, Etomoxir for fatty acids, or UK5099 for pyruvate).
For testing the response of HSPCs to the blocking of glycolysis or mitochondrial ATP synthesis, 2-DG (Sigma, D8375) or oligomycin A (Sigma, 75351) were used. For the inhibition of nutrient uptake into mitochondria, three inhibitors (3I) were used. BPTES (Sigma, SML0601) blocks […] uptake, Etomoxir (Sigma E1905) blocks Fatty acids uptake, and UK5099 (Sigma PZ0160) blocks pyruvate uptake. The final concentration of each inhibitor in the culture medium is 6 μM. Same amount of DMSO was used in the medium as control. For determination of cell number after NR treatment 500 HSCs from young (2-3 months) and old (22-24 months) were pre-incubated either with 1 mM NR (provided by Prof. Johan Auwerx Lab) or DMSO as control for 2 days followed by 2 days treatment with the inhibitors (BPTES, Etomoxir and UK5099, 6 μM each) or same amount of DMSO as control. The cells were then analyzed by BD LSR fortessa.

CMPs = conditions: FIG. 8H
Experimental: (H) Young, 3-4-month old mice were treated one week with two intraperitoneal injections of FCCP/week (high-dose: 4.8 mg/Kg or low-dose: 1.2 mg/Kg) or with vehicle control (10% DMSO) (n=4 mice per group). One week after the start of the treatment, CMPs were freshly isolated and exposed for 12h in culture to a combination of 3 inhibitors of mitochondrial nutrient uptake (31: 6 μM of each BPTES, Etomoxir, and UK5099) or DMSO control (Con). Statistical analysis: The data were normally distributed (Shapiro-Wilk) and p-values were calculated by 2-way ANOVA with Tukey's multiple comparisons test. Error bars depict SD.
To experimentally test this conclusion, CMPs from FCCP-treated vs. control treated young mice (see above) were exposed for 12 hours to 3I-treatment in culture and adaptive response in OCR were measured by Seahorse.
Young C57BL/6 wild type mice (3 months) male mice were weighed before the injection. The mice were then injected intraperitoneally with low dose (1.2 mg/Kg), high dose (4.82 mg/Kg) of FCCP, or 10% DMSO as control (all drugs were dissolved in 10% DMSO. The drug concentration was adjusted so that the final volume of injection of each injection is 150 pL/mouse. The mice were injected at day 1 and day 4 after weighing. Then they were analyzed at day 6. […]

[2] = system: HSCs (CD150+CD34−Flt3−LSK); assay: Culture of HSCs from FCCP- or vehicle-treated mice with 3I-treatment, total cell numbers; type: cell-based; conditions: HSCs from high-dose FCCP-treated young mice; FIG. 6G
Experimental: (F,G) Young, 3-4 month old mice were treated within one week with two intraperitoneal injections of FCCP on day-1 and day-4 (high-dose: 4.8 mg/Kg or low-dose: 1.2 mg/Kg) or with vehicle control (10% DMSO) (n=4 mice per group). One week after the start of the treatment (day-7), total bone marrow cells were analyzed and used for culture experiments. […] (G) 2,500 freshly isolated HSCs from vehicle-treated of high-dose FCCP-treated animals were cultured and exposed to 3I-treatment (same concentration as in FIG. 6E) or to vehicle-treatment (Con). The histogram depicts the total cell numbers at 4 days after culture initiation. (F,G) Data are normally distributed (Shapiro-Wilk test) and p-values were calculated using one-way ANOVA (F) and two-way ANOVA (G) with Tukey's multiple comparisons test. Error bars depict SD.
(§2) To experimentally test whether mitochondrial dysfunction would cause an abrogation of adaptive responses of HSCs to reduction in nutrient availability, young mice were exposed the mitochondrial uncoupler FCCP or vehicle (two injections: day-1 and day-4). One week after the first injection, the mice were analyzed and freshly isolated HSCs of FCCP-treated vs. DMSO-treated mice were exposed in culture to the 3 above described inhibitors of mitochondrial nutrient uptake—a combination of BPTES, Etomoxir, and UK5099, referred to from here on as “3I”.

[3] = system: HSCs (CD150+CD34−Flt3−LSK); conditions: young mice, two i.p. injections (day-1, day-4), 1.2 or 4.8 mg/Kg, 1 week; FIG. 6F
Experimental: (F,G) Young, 3-4 month old mice were treated within one week with two intraperitoneal injections of FCCP on day-1 and day-4 (high-dose: 4.8 mg/Kg or low-dose: 1.2 mg/Kg) or with vehicle control (10% DMSO) (n=4 mice per group). One week after the start of the treatment (day-7), total bone marrow cells were analyzed and used for culture experiments. […] (F,G) Data are normally distributed (Shapiro-Wilk test) and p-values were calculated using one-way ANOVA (F) and two-way ANOVA (G) with Tukey's multiple comparisons test. Error bars depict SD.
as §2
Young C57BL/6 wild type mice (3 months) male mice were weighed before the injection. […]

[4] = system: LDH and PDH activity in HSCs; assay: Activity of LDH and PDH in cultured HSCs after oligomycin-treatment; type: cell-based, mice; conditions: oligomycin 2.4 nM, 20 hours
Experimental: (C,D) Freshly isolated HSCs (CD150^+CD34^−Flt3^−LSK) from young mice (3-4 months, n=7) and old mice (24-25 months, n=7) were cultured overnight (7,000 HSCs per well of a 96-well plate). Eighteen hours later, HSCs were exposed to oligomycin-treatment (2.4 nM) or vehicle control (0.04% DMSO). After 20h treatment, 1,000 cells from the cultures were isolated by FACS to analyze the activity of (C) LDH and (D) PDH. The histograms depict the data scaled to the average of young, control-treated HSCs set to 1. Data are normally distributed (Shapiro-Wilk test). P-values were calculated by two-way ANOVA with Tukey's multiple comparison tests. Error bars depict SD.
(§1) To further test this hypothesis, we analyzed the adaptability of mitochondrial metabolic pathways in freshly isolated HSPCs from young and old mice. First, we exposed freshly isolated HSCs to Oligomycin or to control treatment and we analyzed the RNA expression of Lactate dehydrogenase A (Ldha) and Pyruvate dehydrogenase A (Pdha) 3 hours after isolation and drug treatment. […] Second, we measured the activity of LDH and PDH in freshly isolated HSCs that were exposed for 20 hours to Oligomycin. […] Again HSCs from old mice were irresponsive (FIG. 8C,D). […] Third, we analyzed OCR in freshly isolated CMPs that were treated for 12 hours with inhibitors of mitochondrial nutrient flow (3I) compared to control treatment. As outlined above, CMPs were used for these respirometry experiments, which need higher cell numbers and thus cannot be conducted on HSCs. […] This increase in OCR in young compared to old CMPs was different from freshly isolated MPs (FIG. 3D) likely due to culture induced activation of OCR in young CMPs, which was impaired in old CMPs by pre-existing, chronic mitochondrial dysfunction.

[5] = system: Ldha, Pdha, Nrf1 and Hif1a mRNA in HSCs; assay: qPCR of Ldha, Pdha, Nrf1, Hif1a in HSCs after oligomycin-treatment; type: cell-based, mice; conditions: oligomycin 0.6 μM, 3 hours
Experimental: FIG. 8. (A,B) Freshly isolated HSCs (CD150^+CD34^−Flt3^−LSK) from young mice (2-3 months, n=4) and old mice (27-30 months, n=6) were exposed to oligomycin-treatment (0.6 μM) or vehicle control (0.1% DMSO) for 3 hours in culture (7000 HSCs per well of a 96-well plate). Gene expressions (relative to β-actin) of (A) Ldha, (B) Pdha were analyzed by qPCR. […] P-values were calculated on transformed data by unpaired t-test with Welch's correction. Error bars depict SD.
(E,F) The same HSC cultures that were described in FIG. 8A were used to determine the mRNA expression levels of (E) Nrf1 and (F) Hif1a relative to β-actin by qPCR. N=4 for young groups, n=6 for old groups. One outlier (Grubbs test) was removed for the control groups). […] Error bars depict SD.
as §1

**Q.** With N#C/C(=C\c1cn(-c2ccccc2)c2ccccc12)C(=O)O [UK5099] as the molecule, how does the “cell numbers 5 days after induction of the inhibitor treatment, HSCs from young mice” value [1] read?
**A.** strong reduction in cell numbers

**Q.** And the “sensitivity to respond with a reduction in cell growth, HSCs from old mice” value [1]?
**A.** significantly reduced

**Q.** Which results are given for N#CC(C#N)=NNc1ccc(OC(F)(F)F)cc1 [FCCP]?
**A.** responsiveness of CMPs to reduce OCRs in response to 3I-treatment in culture (CMPs; CMPs from FCCP-treated young mice, 3I 6 μM each, 12 h): dose dependent loss in the responsiveness; OCR of freshly isolated CMPs (CMPs; in vivo pre-treatment of young mice with FCCP 1.2 or 4.8 mg/Kg): dose dependent reduction in the OCR; response of HSCs to 3I-treatment by reduction in cell expansion [2]: complete abrogation in responding to 3I-treatment; number of phenotypic HSCs in bone marrow [3]: dose dependent increase in the number of phenotypic HSCs in bone marrow

**Q.** What does the source list for O=C(Cc1ccccc1)Nc1nnc(CCSCCc2nnc(NC(=O)Cc3ccccc3)s2)s1 [BPTES]?
**A.** cell numbers 5 days after induction of the inhibitor treatment, HSCs from young mice [1]: strong reduction in cell numbers; sensitivity to respond with a reduction in cell growth, HSCs from old mice [1]: significantly reduced

**Q.** What does the source list for CC[C@H]1/C=C/C=C/C[C@@H](C)[C@H](O)[C@@](C)(O)C(=O)[C@@H](C)[C@H](O)[C@@H](C)C(=O)[C@@H](C)[C@H](O)[C@@H](C)/C=C/C(=O)O[C@@H]2[C@H](C)[C@H](CC1)O[C@]1(CC[C@H](C)[C@H](C[C@@H](C)O)O1)[C@H]2C [oligomycin, oligomycin A]?
**A.** cell numbers 5 days after initiation of the treatment, HSCs from old mice compared to HSCs from young mice [1]: less responsive to reduce cell growth; LDH and PDH activity ([4]; HSCs from old mice, FIG. 8C,D): irresponsive; LDH activity ([4]; HSCs from young mice, FIG. 8C): reduction in LDH activity; PDH activity ([4]; HSCs from young mice, FIG. 8D): PDH activity was maintained; Ldha and Pdha RNA expression ([5]; HSCs from old mice, FIG. 8A,B): irresponsive; Ldha RNA expression ([5]; HSCs from young mice, FIG. 8A): significant suppression of Ldha expression; Pdha RNA expression ([5]; HSCs from young mice, FIG. 8B): concomitant increase in Pdha expression

**Q.** CCOC(=O)[C@@]1(CCCCCCOc2ccc(Cl)cc2)CO1 [Etomoxir] was tested. Which “cell numbers 5 days after induction of the inhibitor treatment, HSCs from young mice” value [1] did it give?
**A.** strong reduction in cell numbers

**Q.** What about the “sensitivity to respond with a reduction in cell growth, HSCs from old mice” value [1] of the same molecule?
**A.** significantly reduced

**Q.** How did the “cell numbers 5 days after initiation of the treatment, HSCs from old mice compared to HSCs from young mice” value [1] turn out when O=CC[C@@H](O)[C@H](O)[C@H](O)CO [2-DG, 2-Deoxy-D-glucose] was run?
**A.** stronger reduction in cell numbers
